Measurements as given in US4398029A, “Quinoline carboxylic acid derivatives and process for the preparation” (Kyorin Seiyaku Kabushiki Kaisha, priority 1981, dated 1983).
≈ marks a conversion by molar mass, not a printed value. Structures can show the parent of a compound that is named as a salt. Where two headings read alike, the source gives them in different places.

What was measured:
[1] = test system: gram-positive bacteria; conditions: prior art statement; cited from earlier work
[2] = test system: Pseudomonas aeruginosa; conditions: prior art statement; cited from earlier work
[3] = test system: gram-negative bacteria; conditions: prior art statement; cited from earlier work
[4] = test system: P. mirabilis IID 994; test: Antibacterial activity (MIC), standard agar dilution streak method; assay type: cell-based; conditions: Proteus mirabilis, IID994, read-out: Minimum inhibitory concentration
Protocol: (§1) The antibacterial activities of the compounds of the present invention were assayed by the standard agar dilution streak method against Gram-positive and Gram-negative bacteria [Chemotherapy, 22, 1126 (1974)].

[5] = test system: Salmonella enteritidis IID 604; test: as above; assay type: cell-based; conditions: for MIC: Salmonella enterica, read-out: Minimum inhibitory concentration
Protocol: as §1

[6] = test system: Bacillus subtilis PCI 219; test: as above; assay type: cell-based; conditions: PCI219; for MIC: read-out: Minimum inhibitory concentration
Protocol: as §1

[7] = test system: Staphylococcus aureus 209 p; test: as above; assay type: cell-based; conditions: read-out: Minimum inhibitory concentration
Protocol: as §1

[8] = test system: Escherichia coli NIHJ JC-2; test: as above; assay type: cell-based; conditions: for MIC: read-out: Minimum inhibitory concentration
Protocol: as §1

[9] = test system: Citrobacter freundii IID 976; test: as above; assay type: cell-based; conditions: for MIC: read-out: Minimum inhibitory concentration
Protocol: as §1

[10] = test system: Alcaligenes faecalis 0104002; test: as above; assay type: cell-based; conditions: for MIC: read-out: Minimum inhibitory concentration
Protocol: as §1

[11] = test system: Acinetobacter anitratus IID 876; test: as above; assay type: cell-based; conditions: for MIC: Acinetobacter calcoaceticus, IID876, read-out: Minimum inhibitory concentration
Protocol: as §1

[12] = test system: P. morganii IID 602; test: as above; assay type: cell-based; conditions: for MIC: Morganella morganii, read-out: Minimum inhibitory concentration
Protocol: as §1

[13] = test system: S. epidermidis IID 866; test: as above; assay type: cell-based; conditions: for MIC: Staphylococcus epidermidis, IID866, read-out: Minimum inhibitory concentration
Protocol: as §1

[14] = test system: Enterobacter cloacae IID 977; test: as above; assay type: cell-based; conditions: for MIC: read-out: Minimum inhibitory concentration
Protocol: as §1

[15] = test system: Serratia marcescens IID 618; test: as above; assay type: cell-based; conditions: for MIC: read-out: Minimum inhibitory concentration
Protocol: as §1

[16] = test system: Proteus vulgaris 3167; test: as above; assay type: cell-based; conditions: for MIC: read-out: Minimum inhibitory concentration
Protocol: as §1

[17] = test system: Pseudomonas aeruginosa V-1; test: as above; assay type: cell-based; conditions: V1, read-out: Minimum inhibitory concentration
Protocol: as §1

[18] = test system: Yersinia enterocolitica IID 981; test: as above; assay type: cell-based; conditions: for MIC: read-out: Minimum inhibitory concentration
Protocol: as §1

[19] = test system: Klebsiella pneumoniae IFO 3512; test: as above; assay type: cell-based; conditions: for MIC: read-out: Minimum inhibitory concentration
Protocol: as §1

[20] = test system: E. coli ATCC 10536; test: as above; assay type: cell-based, Escherichia coli; conditions: for MIC: Escherichia coli, ATCC10536, read-out: Minimum inhibitory concentration
Protocol: as §1

[21] = test system: Shigella sonnei IID 969; test: microbe, parasite or virus in culture; assay type: cell-based; conditions: for MIC: read-out: Minimum inhibitory concentration
Protocol: as §1

[22] = test system: S. aureus Terajima; test: Antibacterial activity (MIC), standard agar dilution streak method; assay type: cell-based, Staphylococcus aureus; conditions: for MIC: Staphylococcus aureus, read-out: Minimum inhibitory concentration
Protocol: as §1

[23] = test system: P. aeruginosa IFO 12689; test: as above; assay type: cell-based, Pseudomonas aeruginosa; conditions: for MIC: Pseudomonas aeruginosa, IFO12689, P. aeruginosa IFO 12689, read-out: Minimum inhibitory concentration
Protocol: as §1

[24] = Escherichia coli, NIHJJC2, Escherichia coli NIHJ JC-2
[25] = Citrobacter freundii, IID976, Citrobacter freundii IID 976
[26] = Alcaligenes faecalis, 0104002, Alcaligenes faecalis 0104002
[27] = Enterobacter cloacae, IID977, Enterobacter cloacae IID 977
[28] = Serratia marcescens, IID618, Serratia marcescens IID 618
[29] = Proteus vulgaris, 3167, Proteus vulgaris 3167
[30] = Yersinia enterocolitica, IID981, Yersinia enterocolitica IID 981
[31] = Klebsiella pneumoniae, IFO3512, Klebsiella pneumoniae IFO 3512
[32] = Shigella sonnei, IID969, Shigella sonnei IID 969

Structure (SMILES) | activities against most gram-positive bacteria [1] | activities against Pseudomonas aeruginosa [2] | effectiveness in the therapy of infections due to gram-negative bacteria [3] | MIC ([4]; P. mirabilis IID 994) [µg/mL] | MIC ([7]; Staphylococcus aureus 209 p) [µg/mL] | MIC ([17]; Pseudomonas aeruginosa V-1) [µg/mL] | MIC ([5]; Salmonella enteritidis IID 604) [µg/mL] | MIC ([6]; Bacillus subtilis PCI 219) [µg/mL] | MIC [8, 24] [µg/mL] | MIC [9, 25] [µg/mL] | MIC [10, 26] [µg/mL] | MIC [11] [µg/mL] | MIC ([12]; IID602, P. morganii IID 602) [µg/mL] | MIC [13] [µg/mL] | MIC [14, 27] [µg/mL] | MIC [15, 28] [µg/mL] | MIC [16, 29] [µg/mL] | MIC [18, 30] [µg/mL] | MIC [20] [µg/mL] | MIC [23] [µg/mL] | other results
CCn1cc(C(=O)O)c(=O)c2cnc(N3CCCC3)nc21 [piromidic acid] | weak activities | weak activities | highly effective | – | – | – | – | – | – | – | – | – | – | – | – | – | – | – | – | – | –
CCn1cc(C(=O)O)c(=O)c2cnc(N3CCNCC3)nc21 [pipemidic acid] | weak activities | weak activities | highly effective | – | – | – | – | – | – | – | – | – | – | – | – | – | – | – | – | – | –
CCn1cc(C(=O)O)c(=O)c2cc(F)c(N3CCC(O)CC3)c(F)c21 [Example 16, 1-Ethyl-6,8-difluoro-1,4-dihydro-7-(4-hydroxy-1-piperidinyl)-4-oxoquinoline-3-carboxylic acid silver salt] | – | – | – | 0.39 | 0.2 | 3.13 | – | – | – | – | – | – | – | – | – | – | – | – | – | – | Minimum inhibitory concentration ([5]; Salmonella enteritidis IID 604): 1.56 µg/mL; Minimum inhibitory concentration ([6]; Bacillus subtilis): ≤ 0.05 µg/mL; Minimum inhibitory concentration ([8]; Escherichia coli NIHJ JC-2): 0.78 µg/mL; Minimum inhibitory concentration ([9]; Citrobacter freundii IID 976): 1.56 µg/mL; Minimum inhibitory concentration ([10]; Alcaligenes faecalis 0104002): 3.13 µg/mL; Minimum inhibitory concentration [11]: 1.56 µg/mL; Minimum inhibitory concentration ([12]; P. morganii IID 602): 1.56 µg/mL; Minimum inhibitory concentration [13]: 0.39 µg/mL; Minimum inhibitory concentration ([14]; Enterobacter cloacae IID 977): 3.13 µg/mL; Minimum inhibitory concentration ([15]; Serratia marcescens IID 618): 3.13 µg/mL; Minimum inhibitory concentration ([16]; Proteus vulgaris 3167): 0.10 µg/mL; Minimum inhibitory concentration ([18]; Yersinia enterocolitica IID 981): 1.56 µg/mL; Minimum inhibitory concentration ([19]; Klebsiella pneumoniae IFO 3512): 0.10 µg/mL; Minimum inhibitory concentration [20]: 0.78 µg/mL; Minimum inhibitory concentration ([21]; Shigella sonnei IID 969): 0.39 µg/mL; Minimum inhibitory concentration ([22]; S. aureus Terajima): 0.39 µg/mL; Minimum inhibitory concentration ([23]; P. aeruginosa IFO 12689): 25 µg/mL
CCn1cc(C(=O)O)c(=O)c2ccc(C)nc21 [nalidixic acid] | weak activities | weak activities | highly effective | – | – | – | – | – | – | – | – | – | – | – | – | – | – | – | – | – | –
CCn1cc(C(=O)O)c(=O)c2cc(F)c(N3CCOCC3)c(F)c21 [Example 12, 1-Ethyl-6,8-difluoro-1,4-dihydro-7-(4-morpholinyl)4-oxoquinoline-3-carboxylic acid] | – | – | – | 0.2 (≈ 0.591 µM) | 0.2 (≈ 0.591 µM) | 12.5 (≈ 36.9 µM) | 1.56 (≈ 4.61 µM) | ≤ 0.05 | 0.2 (≈ 0.591 µM) | 0.78 (≈ 2.31 µM) | 1.56 (≈ 4.61 µM) | 1.56 (≈ 4.61 µM) | 0.78 (≈ 2.31 µM) | 0.39 (≈ 1.15 µM) | 1.56 (≈ 4.61 µM) | 1.56 (≈ 4.61 µM) | ≤ 0.05 | 0.39 (≈ 1.15 µM) | 0.39 (≈ 1.15 µM) | 12.5 (≈ 36.9 µM) | MIC [19, 31]: ≤ 0.05 µg/mL; MIC [21, 32]: 0.2 µg/mL (≈ 0.591 µM); MIC ([22]; S. aureus Terajima): 0.39 µg/mL (≈ 1.15 µM)
CCn1cc(C(=O)O)c(=O)c2cc(F)c(N3CCC(N(C)C)CC3)c(F)c21 [Example 13, 1-Ethyl-6,8-difluoro-1,4-dihydro-7-(4-dimethylamino-1-piperidinyl)-4-oxoquinoline-3-carboxylic acid] | – | – | – | 0.39 (≈ 1.03 µM) | 0.39 (≈ 1.03 µM) | 12.5 (≈ 32.9 µM) | 0.78 (≈ 2.06 µM) | 0.1 (≈ 0.264 µM) | ≤ 0.05 | 0.39 (≈ 1.03 µM) | 6.25 (≈ 16.5 µM) | 0.78 (≈ 2.06 µM) | 1.56 (≈ 4.11 µM) | 0.39 (≈ 1.03 µM) | 3.13 (≈ 8.25 µM) | 0.78 (≈ 2.06 µM) | 0.1 (≈ 0.264 µM) | 0.78 (≈ 2.06 µM) | 0.2 (≈ 0.527 µM) | 25 (≈ 65.9 µM) | MIC [19, 31]: ≤ 0.05 µg/mL; MIC [21, 32]: 0.1 µg/mL (≈ 0.264 µM); MIC ([22]; S. aureus Terajima): 0.39 µg/mL (≈ 1.03 µM)
CCn1cc(C(=O)O)c(=O)c2cc(F)c(N3CCCC3)c(F)c21 [Example 11, 1-Ethyl-6,8-difluoro-1,4-dihydro-4-oxo-7-(1-pyrrolidinyl)quinoline-3-carboxylic acid] | – | – | – | 0.1 (≈ 0.31 µM) | 0.1 (≈ 0.31 µM) | 6.25 (≈ 19.4 µM) | 1.56 (≈ 4.84 µM) | ≤ 0.05 | 0.2 (≈ 0.621 µM) | 0.39 (≈ 1.21 µM) | 0.39 (≈ 1.21 µM) | 0.39 (≈ 1.21 µM) | 0.39 (≈ 1.21 µM) | 0.2 (≈ 0.621 µM) | 1.56 (≈ 4.84 µM) | 1.56 (≈ 4.84 µM) | ≤ 0.05 | 0.39 (≈ 1.21 µM) | 0.2 (≈ 0.621 µM) | 6.25 (≈ 19.4 µM) | MIC [19, 31]: ≤ 0.05 µg/mL; MIC [21, 32]: 0.2 µg/mL (≈ 0.621 µM); MIC ([22]; S. aureus Terajima): 0.1 µg/mL (≈ 0.31 µM)
CCN1CCN(c2c(F)cc3c(=O)c(C(=O)O)cn(CC)c3c2F)CC1 [Example 7, 1-Ethyl-7-(4-ethyl-1-piperazinyl)-6,8-difluoro-1,4-dihydro-4-oxoquinoline-3-carboxylic acid] | – | – | – | – | – | – | – | – | – | – | – | 0.39 (≈ 1.07 µM) | – | 0.78 (≈ 2.13 µM) | – | – | – | – | 0.1 (≈ 0.274 µM) | 6.25 (≈ 17.1 µM) | MIC [4]: 0.2 µg/mL (≈ 0.547 µM); MIC [5]: 0.39 µg/mL (≈ 1.07 µM); MIC ([6]; Bacillus subtilis): 0.1 µg/mL (≈ 0.274 µM); MIC ([7]; Staphylococcus aureus, 209P): 0.78 µg/mL (≈ 2.13 µM); MIC ([8]; NIHJJC2, Escherichia coli NIHJ JC-2): ≤ 0.05 µg/mL; MIC ([9]; IID976, Citrobacter freundii IID 976): 0.2 µg/mL (≈ 0.547 µM); MIC ([10]; Alcaligenes faecalis 0104002): 1.56 µg/mL (≈ 4.27 µM); MIC ([12]; IID602): 0.39 µg/mL (≈ 1.07 µM); MIC ([14]; IID977, Enterobacter cloacae IID 977): 0.39 µg/mL (≈ 1.07 µM); MIC ([15]; IID618, Serratia marcescens IID 618): 0.39 µg/mL (≈ 1.07 µM); MIC ([16]; Proteus vulgaris 3167): ≤ 0.05 µg/mL; MIC ([17]; Pseudomonas aeruginosa): 6.25 µg/mL (≈ 17.1 µM); MIC ([18]; IID981, Yersinia enterocolitica IID 981): 0.2 µg/mL (≈ 0.547 µM); MIC ([19]; IFO3512, Klebsiella pneumoniae IFO 3512): ≤ 0.05 µg/mL; MIC ([21]; IID969, Shigella sonnei IID 969): 0.1 µg/mL (≈ 0.274 µM); MIC [22]: 0.78 µg/mL (≈ 2.13 µM)
